How the values were obtained:
BCL-2/BAK = molecular target: T1, BCL-2/BAK (Homo sapiens, UniProt P10415); assay: Screening on inhibitory activity for BCL-2/BAK binding (Cisbio HTRF kit)
T1 construct: purchased Cisbio
Outline: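 HTRF competition assay: Tag1-BCL-2 and Tag2-BAK working dilutions were 5 nM and 120 nM. Compound (200–0.0488 nM final, 4-fold, 7 points, duplicates) was incubated with the proteins for 15 min at 25 °C, then with Eu-cryptate/XL665 antibodies for ≥2 h at 25 °C. IC50 was derived from a four-parameter fit.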

[1] = In vitro stability in rat liver microsomes; type: in vitro ADME; settings: 1 μM
Experimental: (§1) Experimental Example 3: In Vitro Stability in Liver Microsome
(§2) 300 μL of the final incubation system contains 30 μL of liver microsomes (protein concentration: 5 mg/mL), 30 μL of NADPH+MgCl2, 3 μL of the test compound (in acetonitrile), and 237 μL of PBS buffer (pH 7.4), wherein the proportion of the organic solvent (acetonitrile) is 1% (volume ratio). Two duplicate samples were prepared for each specie (mouse, rat and human), and each sample was 0.3 mL. Each tube which was added with 270 μL of a mixed solution of substrate and enzyme, and NADPH, after being pre-incubated at 37° C. for 5 min, was added with 30 μL of NADPH+MgCl2 and mixed. Then 50 μL of the mixture was taken at 0 min, 15 min, 30 min and 60 min, and added with 300 μL of glacial acetonitrile containing an internal standard to terminate the reaction.
(§3) 50 μL of the incubated sample was added with 300 μL of glacial acetonitrile containing an internal standard (20 ng/mL diazepam) for precipitation, vortexed for 5 min, and centrifuged (13,000 rpm, 20° C.) for 10 min. 70 μL of supernatant was taken and diluted with 70 μL of ultrapure water. After being mixed well, 1 μL of the resulting sample was injected for analysis.

[2] = In vitro stability in human liver microsomes; type: in vitro ADME; settings: 1 μM
Experimental: as §1, §2, §3

[3] = system: human B-cell leukemia RS4;11 subcutaneous xenograft; assay: Pharmacodynamics in human B-cell leukemia RS4;11 subcutaneous xenograft model; type: in vivo, NOD/SCID mice; settings: Day 17 after the end of administration
Text: Experimental Example 5: Pharmacodynamics of Compounds in Human B-Cell Leukemia RS4; 11 Subcutaneous Xenograft Model
NOD/SCID mice, female, 9-10 weeks old (ages upon tumor cell grafting), body weight of 16.3-22.0 g, purchased from Beijing AniKeeper Biotech Co., Ltd.; production license number: SCXK (Jing) 2017-0006, and animal certification number: 11402400013155. Breeding environment: SPF grade. Mice were grafted subcutaneously on the right anterior dorsal side with 1×10^7 RS4;11 cells. The day of grafting was defined as day 0. When the mean tumor volume was 240 mm^3, the mice were randomly grouped according to the tumor size. The administration was performed as per Table 5 below.
Clinical symptoms observed during the experiment were recorded in the raw data. The calculation formula for tumor volume: Tumor volume (mm^3)=½×(a×b^2) (where a represents long diameter and b represents short diameter). The data were collected using StudyDirector™ software (version No. 3.1.399.19, supplier: Studylog System, Inc., S.San Francisco, CA, USA) in the experiment, including measurements of the long and short diameters of the tumor and weighing results of the animals. The raw data obtained from a balance and a vernier caliper were directly imported into the software, and any change in the data was recorded. Relative tumor proliferation rate (T/C %) refers to the percentage of the relative tumor volume or tumor weight of the treatment and control groups at a certain time point. The calculation formula is as follows:
T/C %=TRTV/CRTV×100% (TRTV: mean RTV for treatment group; CRTV: mean RTV for vehicle control group; RTV=Vt/V0, where V0 is the tumor volume of the animal upon grouping, and Vt is the tumor volume of the animal after treatment).
(T and C are the relative tumor volume (RTV) or tumor weight (TW) at a particular time point for the treatment and control groups, respectively).
All experimental results were expressed as mean tumor volume±SEM (standard error of mean). The relative tumor volume of the treatment group was compared with that of the control group for any significant difference by the independent sample T test. All data were analyzed using SPSS 18.0. p<0.05 was defined as a significant difference.

T1 sequence (P10415 whole entry, species assumed): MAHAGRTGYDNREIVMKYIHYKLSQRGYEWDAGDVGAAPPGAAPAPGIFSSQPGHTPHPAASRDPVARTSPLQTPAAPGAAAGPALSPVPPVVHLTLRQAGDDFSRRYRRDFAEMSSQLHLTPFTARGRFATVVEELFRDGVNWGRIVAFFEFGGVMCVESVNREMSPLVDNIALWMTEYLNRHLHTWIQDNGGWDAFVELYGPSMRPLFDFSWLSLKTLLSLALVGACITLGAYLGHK

| SMILES | IC50 (BCL-2/BAK) [nM] | Rat Residual content after 60 min (%) [1] [%] | Human Residual content after 60 min (%) [2] [%] | T/C (%) ([3]; 25 mg/kg p.o. one dose) | TGI (%) ([3]; 25 mg/kg p.o. one dose) | Tumor volume (x ± S) ([3]; 25 mg/kg p.o. one dose) [mm^3] | Relative tumor volume (x ± S) ([3]; 25 mg/kg p.o. one dose) | Relative tumor volume (x ± S) ([3]; 50 mg/kg p.o. one dose) | T/C (%) ([3]; 50 mg/kg p.o. one dose) | TGI (%) ([3]; 50 mg/kg p.o. one dose) | Tumor volume (x ± S) ([3]; 50 mg/kg p.o. one dose) [mm^3] |
| --- | --- | --- | --- | --- | --- | --- | --- | --- | --- | --- | --- |
| CC1(C)CCC(CN2CCN(c3ccc(C(=O)NS(=O)(=O)c4ccc(NC[C@H]5COCCO5)c([N+](=O)[O-])c4)c(Oc4cnc5[nH]ccc5c4)c3)CC2)=C(c2ccc(C(F)(F)F)cc2Cl)C1 [Compound 8-1] | 2.8 | 90.9 | 86.3 | 29.8 | 70.2 | 600.39 ± 32.88 | – | – | – | – | – |
| CC1(C)CCC(CN2CCN(c3ccc(C(=O)NS(=O)(=O)c4ccc(NCC5CCOCC5)c([N+](=O)[O-])c4)c(Oc4cnc5[nH]ccc5c4)c3)CC2)=C(c2ccc(C(F)(F)F)cc2Cl)C1 [Compound 1-1, 4-(4-{[2-(2-chloro-4-trifluoromethylphenyl)-4,4-dimethylcyclohex-1-enyl]methyl}-piperazin-1-yl)-N-({3-nitro-4-[(tetrahydro-2H-pyran-4-ylmethyl)amino]phenyl}sulfonyl)-2-(1H-pyrrolo[2,3-b]pyridin-5-yloxy)-benzamide] | 2.7 | 88.4 | 70.8 | 51.5 | 48.5 | 1024.97 ± 160.59 | 4.39 ± 0.83 | 1.92 ± 0.36 | 22.5 | 77.5 | 465.78 ± 95.68 |
